Consider ten compounds from ChEMBL document CHEMBL5543067, “Advances in nitric oxide regulators for the treatment of ischemic stroke” (Eur J Med Chem, 2023).

In brackets after ≈: the same amount, converted by molar mass.

The term IC50 denotes the concentration that gives 50% inhibition. A word on the Ki: it is a measure of affinity in units of concentration, obtained from inhibition or displacement. The solubility is the dissolved amount per volume that the medium holds. A low value points to a poorly soluble substance.

The target in data set [1] is T1, Nitric oxide synthase, inducible (Mus musculus, UniProt P29477).
T1 sequence (P29477 whole entry): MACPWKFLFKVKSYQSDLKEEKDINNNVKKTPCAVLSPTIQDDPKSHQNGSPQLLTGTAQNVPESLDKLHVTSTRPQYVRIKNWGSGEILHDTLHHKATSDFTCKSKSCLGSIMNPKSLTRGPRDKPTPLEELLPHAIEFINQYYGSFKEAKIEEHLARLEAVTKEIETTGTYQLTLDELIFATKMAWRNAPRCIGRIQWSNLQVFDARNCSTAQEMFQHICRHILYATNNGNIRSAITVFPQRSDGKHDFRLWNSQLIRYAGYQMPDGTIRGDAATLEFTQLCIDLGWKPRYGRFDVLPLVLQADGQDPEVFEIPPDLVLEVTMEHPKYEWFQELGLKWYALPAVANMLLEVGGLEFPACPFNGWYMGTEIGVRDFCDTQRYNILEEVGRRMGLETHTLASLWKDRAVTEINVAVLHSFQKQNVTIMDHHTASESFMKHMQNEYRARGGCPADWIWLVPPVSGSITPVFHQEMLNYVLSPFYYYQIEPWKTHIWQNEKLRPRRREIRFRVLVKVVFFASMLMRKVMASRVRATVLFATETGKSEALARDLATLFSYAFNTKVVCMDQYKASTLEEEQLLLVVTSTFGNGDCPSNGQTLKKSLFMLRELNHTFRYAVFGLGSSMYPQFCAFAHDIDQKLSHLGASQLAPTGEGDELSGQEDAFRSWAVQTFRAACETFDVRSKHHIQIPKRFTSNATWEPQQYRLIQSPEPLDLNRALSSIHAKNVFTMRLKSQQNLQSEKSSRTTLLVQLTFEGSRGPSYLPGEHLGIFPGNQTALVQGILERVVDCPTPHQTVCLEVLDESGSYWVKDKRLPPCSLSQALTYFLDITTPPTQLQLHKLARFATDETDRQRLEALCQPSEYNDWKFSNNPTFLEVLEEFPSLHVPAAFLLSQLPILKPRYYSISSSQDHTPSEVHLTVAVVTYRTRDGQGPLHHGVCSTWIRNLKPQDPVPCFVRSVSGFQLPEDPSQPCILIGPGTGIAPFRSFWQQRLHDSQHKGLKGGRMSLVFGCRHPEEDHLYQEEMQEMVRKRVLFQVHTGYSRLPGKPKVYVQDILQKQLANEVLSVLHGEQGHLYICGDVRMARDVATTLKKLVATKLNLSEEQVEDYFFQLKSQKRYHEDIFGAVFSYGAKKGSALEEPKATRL
The data set is described as follows: Inhibition of mouse iNOS in RAW264.7 cells. The class given is cell-based.

In data set [2] the target is T2, Nitric oxide synthase 3 (Homo sapiens, UniProt P29474).
T2 sequence (P29474 whole entry): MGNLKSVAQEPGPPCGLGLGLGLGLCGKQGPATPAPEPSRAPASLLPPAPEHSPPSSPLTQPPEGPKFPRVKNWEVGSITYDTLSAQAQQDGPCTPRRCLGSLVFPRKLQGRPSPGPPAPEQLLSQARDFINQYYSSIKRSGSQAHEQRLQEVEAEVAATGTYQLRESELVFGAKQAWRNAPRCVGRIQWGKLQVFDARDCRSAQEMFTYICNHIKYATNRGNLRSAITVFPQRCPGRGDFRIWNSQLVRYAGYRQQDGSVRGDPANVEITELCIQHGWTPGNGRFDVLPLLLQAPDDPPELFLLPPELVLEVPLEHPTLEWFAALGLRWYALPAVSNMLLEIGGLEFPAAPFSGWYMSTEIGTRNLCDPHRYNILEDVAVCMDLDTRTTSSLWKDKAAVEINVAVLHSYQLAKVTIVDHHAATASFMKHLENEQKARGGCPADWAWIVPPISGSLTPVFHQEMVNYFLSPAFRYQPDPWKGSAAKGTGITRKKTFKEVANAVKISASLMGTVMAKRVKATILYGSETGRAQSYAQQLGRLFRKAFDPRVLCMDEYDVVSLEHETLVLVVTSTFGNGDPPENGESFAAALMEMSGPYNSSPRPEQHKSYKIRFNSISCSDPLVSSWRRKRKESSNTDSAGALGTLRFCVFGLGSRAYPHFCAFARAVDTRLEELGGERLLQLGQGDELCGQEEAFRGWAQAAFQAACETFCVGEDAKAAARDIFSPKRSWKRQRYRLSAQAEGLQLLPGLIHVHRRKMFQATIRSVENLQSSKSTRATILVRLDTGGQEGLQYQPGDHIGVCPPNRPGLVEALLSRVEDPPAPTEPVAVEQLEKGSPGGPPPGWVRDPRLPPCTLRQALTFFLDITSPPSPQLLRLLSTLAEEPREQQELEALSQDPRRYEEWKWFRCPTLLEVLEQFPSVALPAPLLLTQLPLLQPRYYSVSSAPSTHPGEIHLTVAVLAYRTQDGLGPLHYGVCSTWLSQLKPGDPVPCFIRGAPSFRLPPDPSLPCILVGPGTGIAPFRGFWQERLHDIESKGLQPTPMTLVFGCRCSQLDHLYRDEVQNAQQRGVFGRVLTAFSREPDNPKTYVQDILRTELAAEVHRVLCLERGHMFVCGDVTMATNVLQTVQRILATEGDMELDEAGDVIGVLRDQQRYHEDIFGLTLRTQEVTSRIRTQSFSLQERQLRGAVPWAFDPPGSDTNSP
The data set is described as follows: Inhibition of human Endothelial cells eNOS. Type of data set: cell-based, Endothelial cell.

The target in data set [3] is Nitric oxide synthase 1 (Rattus norvegicus, UniProt P29476). The data set is described as follows: Inhibition of rat cerebellum nNOS. Type of data set: tissue-based.
Nitric oxide synthase 1 (Rattus norvegicus, UniProt P29476), sequence (P29476 whole entry): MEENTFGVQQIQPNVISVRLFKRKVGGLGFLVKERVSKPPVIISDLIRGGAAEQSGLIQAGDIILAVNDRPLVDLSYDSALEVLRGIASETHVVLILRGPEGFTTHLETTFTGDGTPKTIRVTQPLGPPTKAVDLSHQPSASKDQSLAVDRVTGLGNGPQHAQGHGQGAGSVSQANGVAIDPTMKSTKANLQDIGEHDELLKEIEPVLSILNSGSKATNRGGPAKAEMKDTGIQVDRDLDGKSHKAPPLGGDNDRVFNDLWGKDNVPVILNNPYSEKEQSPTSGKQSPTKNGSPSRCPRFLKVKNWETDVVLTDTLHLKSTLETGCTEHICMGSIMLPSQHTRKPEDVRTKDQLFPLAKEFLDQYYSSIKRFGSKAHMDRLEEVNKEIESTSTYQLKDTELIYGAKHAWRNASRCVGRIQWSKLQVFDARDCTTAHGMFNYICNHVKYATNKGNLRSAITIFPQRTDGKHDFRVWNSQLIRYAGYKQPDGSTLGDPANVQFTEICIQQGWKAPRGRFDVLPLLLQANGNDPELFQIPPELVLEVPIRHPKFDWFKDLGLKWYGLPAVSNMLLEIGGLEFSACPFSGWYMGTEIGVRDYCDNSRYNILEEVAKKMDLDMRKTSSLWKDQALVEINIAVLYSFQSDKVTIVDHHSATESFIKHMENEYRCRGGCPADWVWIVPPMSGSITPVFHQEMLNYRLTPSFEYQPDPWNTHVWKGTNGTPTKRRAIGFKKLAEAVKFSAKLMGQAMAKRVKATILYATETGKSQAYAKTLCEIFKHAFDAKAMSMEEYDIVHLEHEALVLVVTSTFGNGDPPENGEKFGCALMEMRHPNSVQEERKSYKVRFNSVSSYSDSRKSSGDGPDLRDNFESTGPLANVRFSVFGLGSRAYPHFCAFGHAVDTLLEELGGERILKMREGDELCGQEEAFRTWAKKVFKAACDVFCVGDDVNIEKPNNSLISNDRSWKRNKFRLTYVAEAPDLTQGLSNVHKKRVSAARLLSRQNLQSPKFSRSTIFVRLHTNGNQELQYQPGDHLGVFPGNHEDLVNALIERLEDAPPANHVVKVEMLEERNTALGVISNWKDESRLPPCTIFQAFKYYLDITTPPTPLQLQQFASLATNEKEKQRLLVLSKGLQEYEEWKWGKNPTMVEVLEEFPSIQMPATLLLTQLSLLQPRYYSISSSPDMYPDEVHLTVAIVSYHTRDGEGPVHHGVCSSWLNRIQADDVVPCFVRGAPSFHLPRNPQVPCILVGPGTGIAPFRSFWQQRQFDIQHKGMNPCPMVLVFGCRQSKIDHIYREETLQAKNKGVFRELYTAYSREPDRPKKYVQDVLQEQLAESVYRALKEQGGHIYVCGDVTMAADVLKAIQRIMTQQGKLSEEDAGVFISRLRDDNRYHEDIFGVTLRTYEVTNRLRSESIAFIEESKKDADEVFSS
The test system of data set [4] is Platelet. In words: Inhibition of AA-induced platelet aggregation in New Zealand White rabbit. Type of data set: functional, cell-based. The following applies: Oryctolagus cuniculus.
Data set [5] concerns Platelet. In words: Inhibition of ADP-induced platelet aggregation in New Zealand White rabbit. The class given is functional, cell-based. The following applies: Oryctolagus cuniculus.
Data set [6] deals with T3, Nitric oxide synthase 1 (Homo sapiens, UniProt P29475). The data set is described as follows: Binding affinity to GST-tagged nNOS (unknown origin) expressed in Escherichia coli BL21 (DE3) assessed as change in enthalpy.
T3 sequence (P29475 whole entry, the tested form may be a part): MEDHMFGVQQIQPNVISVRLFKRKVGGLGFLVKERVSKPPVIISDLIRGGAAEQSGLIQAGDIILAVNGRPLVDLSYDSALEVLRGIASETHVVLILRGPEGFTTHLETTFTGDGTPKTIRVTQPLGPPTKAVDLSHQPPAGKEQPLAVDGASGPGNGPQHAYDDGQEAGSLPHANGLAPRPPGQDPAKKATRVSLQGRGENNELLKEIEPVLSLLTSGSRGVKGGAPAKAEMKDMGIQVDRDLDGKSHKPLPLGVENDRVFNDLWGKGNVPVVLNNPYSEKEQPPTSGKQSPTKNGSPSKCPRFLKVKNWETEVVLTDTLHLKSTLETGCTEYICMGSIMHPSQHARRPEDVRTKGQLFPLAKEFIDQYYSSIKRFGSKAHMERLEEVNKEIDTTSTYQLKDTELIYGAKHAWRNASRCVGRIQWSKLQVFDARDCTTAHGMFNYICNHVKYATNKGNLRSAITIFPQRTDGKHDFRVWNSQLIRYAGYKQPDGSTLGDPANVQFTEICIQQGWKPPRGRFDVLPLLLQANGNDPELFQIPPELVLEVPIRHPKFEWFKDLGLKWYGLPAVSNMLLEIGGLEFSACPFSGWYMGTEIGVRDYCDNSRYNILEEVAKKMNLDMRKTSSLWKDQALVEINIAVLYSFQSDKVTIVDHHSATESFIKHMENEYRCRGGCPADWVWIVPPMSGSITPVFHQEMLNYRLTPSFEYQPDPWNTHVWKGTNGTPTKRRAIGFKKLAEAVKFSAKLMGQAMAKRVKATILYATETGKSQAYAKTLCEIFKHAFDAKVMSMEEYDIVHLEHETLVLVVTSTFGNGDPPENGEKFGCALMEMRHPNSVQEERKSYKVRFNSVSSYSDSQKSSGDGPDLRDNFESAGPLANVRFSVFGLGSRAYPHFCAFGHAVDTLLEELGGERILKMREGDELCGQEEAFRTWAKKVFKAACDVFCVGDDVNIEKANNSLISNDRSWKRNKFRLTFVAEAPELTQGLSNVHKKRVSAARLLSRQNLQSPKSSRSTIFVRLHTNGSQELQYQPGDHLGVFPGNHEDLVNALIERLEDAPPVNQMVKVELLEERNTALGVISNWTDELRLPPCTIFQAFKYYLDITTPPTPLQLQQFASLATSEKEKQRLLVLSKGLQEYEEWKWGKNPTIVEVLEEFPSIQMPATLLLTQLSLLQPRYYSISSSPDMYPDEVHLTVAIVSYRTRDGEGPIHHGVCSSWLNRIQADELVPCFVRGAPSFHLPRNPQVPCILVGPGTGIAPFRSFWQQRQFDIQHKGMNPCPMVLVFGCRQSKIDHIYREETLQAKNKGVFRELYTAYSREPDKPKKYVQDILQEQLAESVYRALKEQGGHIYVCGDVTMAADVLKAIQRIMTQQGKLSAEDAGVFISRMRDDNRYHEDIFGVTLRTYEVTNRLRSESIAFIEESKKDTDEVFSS
Data set [7] in a line: Permeability of the compound across blood brain barrier at pH 7.4 at 12.5 uM incubated for 4 hrs by PAMPA assay. Type of data set: ADME. Particulars: read-out: permeability. On the technique in general: The PAMPA barrier holds no transporters, so it reflects passive diffusion.
Data set [8] concerns the target T3, Nitric oxide synthase 1. The data set is described as follows: Binding affinity to nNOS (unknown origin) assessed as inhibition constant.
Data set [9] deals with Nitric oxide synthase, inducible (Homo sapiens, UniProt P35228). In words: Binding affinity to iNOS (unknown origin) assessed as inhibition constant.
Nitric oxide synthase, inducible (Homo sapiens, UniProt P35228), sequence (P35228 whole entry): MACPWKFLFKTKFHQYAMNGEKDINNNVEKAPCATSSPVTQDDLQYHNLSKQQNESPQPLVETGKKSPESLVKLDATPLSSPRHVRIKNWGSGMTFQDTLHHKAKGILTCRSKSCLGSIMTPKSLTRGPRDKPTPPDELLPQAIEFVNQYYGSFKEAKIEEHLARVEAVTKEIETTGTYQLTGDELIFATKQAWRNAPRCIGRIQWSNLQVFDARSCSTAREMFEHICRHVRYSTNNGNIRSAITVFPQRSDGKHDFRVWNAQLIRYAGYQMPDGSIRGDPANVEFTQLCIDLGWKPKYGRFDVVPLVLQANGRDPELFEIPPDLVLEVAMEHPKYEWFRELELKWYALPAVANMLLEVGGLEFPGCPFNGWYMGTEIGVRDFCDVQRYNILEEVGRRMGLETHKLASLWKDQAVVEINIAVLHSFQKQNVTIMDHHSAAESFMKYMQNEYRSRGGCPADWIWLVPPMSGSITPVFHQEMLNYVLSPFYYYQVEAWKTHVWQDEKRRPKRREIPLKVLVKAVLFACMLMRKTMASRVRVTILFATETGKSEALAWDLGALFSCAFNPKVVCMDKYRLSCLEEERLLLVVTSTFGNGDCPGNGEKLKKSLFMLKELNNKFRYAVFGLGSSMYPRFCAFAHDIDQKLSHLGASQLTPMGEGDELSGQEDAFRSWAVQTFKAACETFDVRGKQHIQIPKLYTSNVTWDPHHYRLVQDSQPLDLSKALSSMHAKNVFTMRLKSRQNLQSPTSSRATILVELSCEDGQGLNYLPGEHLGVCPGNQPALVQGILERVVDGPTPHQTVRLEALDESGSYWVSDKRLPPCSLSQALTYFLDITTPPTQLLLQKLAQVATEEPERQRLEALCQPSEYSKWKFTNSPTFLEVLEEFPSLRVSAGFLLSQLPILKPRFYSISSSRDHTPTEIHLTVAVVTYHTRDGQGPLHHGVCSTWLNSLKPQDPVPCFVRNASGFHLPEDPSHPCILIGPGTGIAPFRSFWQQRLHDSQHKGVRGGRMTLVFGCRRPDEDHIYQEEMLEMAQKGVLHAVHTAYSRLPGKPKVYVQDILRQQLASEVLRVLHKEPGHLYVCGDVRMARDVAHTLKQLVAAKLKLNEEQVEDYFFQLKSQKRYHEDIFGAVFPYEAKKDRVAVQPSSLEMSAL
For data set [10], the target named is T2, Nitric oxide synthase 3. The data set is described as follows: Binding affinity to eNOS (unknown origin) assessed as inhibition constant.
Data set [11] in a line: Neuroprotective activity in rat hippocampal neuron cells assessed as NMDA-induced cGMP production. Particulars: Hippocampal neurone. Type of data set: functional, cell-based.
A short description of data set [12]: Inhibition of NOS (unknown origin). Details: species or system Homo sapiens.
Data set [13] concerns the target Nitric oxide synthase, inducible (Rattus norvegicus, UniProt Q06518). The data set is described as follows: Inhibition of rat iNOS.
Data set [14] addresses Nitric oxide synthase 1 (Mus musculus, UniProt Q9Z0J4). In words: Inhibition of mouse nNOS.
The target in data set [15] is T4, Nitric oxide synthase 3 (Bos taurus, UniProt P29473).
T4 sequence (P29473 whole entry): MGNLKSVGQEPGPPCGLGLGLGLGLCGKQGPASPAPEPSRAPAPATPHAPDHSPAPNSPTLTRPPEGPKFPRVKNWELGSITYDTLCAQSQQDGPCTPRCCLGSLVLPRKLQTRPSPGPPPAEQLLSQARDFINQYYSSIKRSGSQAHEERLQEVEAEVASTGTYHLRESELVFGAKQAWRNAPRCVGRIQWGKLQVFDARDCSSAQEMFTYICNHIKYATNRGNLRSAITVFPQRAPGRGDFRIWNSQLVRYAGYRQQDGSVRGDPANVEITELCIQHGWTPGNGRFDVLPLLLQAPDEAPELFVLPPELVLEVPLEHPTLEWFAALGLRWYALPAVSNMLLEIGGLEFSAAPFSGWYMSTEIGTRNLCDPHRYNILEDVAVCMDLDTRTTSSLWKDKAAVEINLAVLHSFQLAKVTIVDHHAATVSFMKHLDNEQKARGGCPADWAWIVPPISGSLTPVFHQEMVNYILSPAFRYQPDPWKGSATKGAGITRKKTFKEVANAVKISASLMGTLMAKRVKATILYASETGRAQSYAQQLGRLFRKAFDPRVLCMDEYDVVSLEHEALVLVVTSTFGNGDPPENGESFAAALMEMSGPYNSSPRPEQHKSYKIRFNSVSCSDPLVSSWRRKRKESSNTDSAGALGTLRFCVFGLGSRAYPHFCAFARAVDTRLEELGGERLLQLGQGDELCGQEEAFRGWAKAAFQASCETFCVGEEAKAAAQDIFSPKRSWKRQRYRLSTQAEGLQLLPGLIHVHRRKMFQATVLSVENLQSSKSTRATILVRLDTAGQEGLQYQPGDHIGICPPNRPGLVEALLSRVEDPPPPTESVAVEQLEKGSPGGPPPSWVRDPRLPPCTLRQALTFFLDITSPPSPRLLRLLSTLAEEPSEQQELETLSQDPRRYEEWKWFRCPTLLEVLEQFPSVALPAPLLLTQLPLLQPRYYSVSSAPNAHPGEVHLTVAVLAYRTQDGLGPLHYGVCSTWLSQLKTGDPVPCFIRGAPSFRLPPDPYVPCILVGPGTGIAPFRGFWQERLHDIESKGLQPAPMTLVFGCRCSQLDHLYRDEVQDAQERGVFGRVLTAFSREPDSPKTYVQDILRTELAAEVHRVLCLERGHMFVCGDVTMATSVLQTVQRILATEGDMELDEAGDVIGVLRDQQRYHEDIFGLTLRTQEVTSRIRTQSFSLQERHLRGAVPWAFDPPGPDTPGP
The data set is described as follows: Inhibition of bovine eNOS.

The subject of data set [16] is Platelet. The data set is described as follows: Inhibition of ADP-induced platelet aggregation (unknown origin). The class given is functional, cell-based.
The nature of data set [17]: Water solubility at pH 7.4. Type of data set: physicochemical.

Turning to `N=C(Nc1ccc2c(c1)CNCC2)c1cccs1`, the values for the IC50 (in data set [1]; against Nitric oxide synthase 3 [2]; against Nitric oxide synthase 1 [3]) were 5.5 µM, 10 µM and 0.05 µM, respectively.

Take `Cc1nc(C)c(COC(=O)c2cccc(OCCCCO[N+](=O)[O-])c2)nc1C`: the 50% inhibitory concentration (IC50) was determined as 0.556 µM in the data set on Platelet [4] and 0.734 µM in the data set on Platelet [5].

`COC(=O)C[C@H](NC(=O)[C@@H](C)NCCC1CCCCC1)C(=O)N[C@H](C)C(=O)N[C@@H](C(=O)O)C(C)C`: the deltaH on Nitric oxide synthase 1 [6] is -1.67 kcal/mol. Further, in data set [7], the Papp at 4 h, 12.5 µM amounted to 6.07 ×10⁻⁶ cm/s.

For `N=C(N)NN` [PIMAGEDINE], the Ki at Nitric oxide synthase 1 [8] was 830 µM; in [9] it was 16 µM; on Nitric oxide synthase 3 [10] it was over 8000 µM.

Take `Oc1c(Cl)cc(Cl)cc1CNc1ccc2nn[nH]c2c1`: the IC50 in data set [11] was determined as 2.7 µM.

In turn, `COC(=O)[C@@H](N)CCCNC(=N)N[N+](=O)[O-]` [L-NAME] registered a half-inhibitory concentration (IC50) in data set [12] of 70 µM.

As for `FC(F)(F)c1ccccc1-n1ccnc1`, the IC50 in data set [13] turned out to be 27 µM; against Nitric oxide synthase 1 [14], 28.2 µM; against Nitric oxide synthase 3 [15], 1060 µM.

As to `CN1CCc2ccc(NC(=N)c3cccs3)cc2C1`, the IC50 stood at 5 µM in data set [1], 24 µM against Nitric oxide synthase 3 [2] and 0.08 µM against Nitric oxide synthase 1 [3].

Compound `CCCCC(OC(C)=O)c1ccccc1C(=O)O[C@H]1CO[C@H]2[C@@H]1OC[C@H]2OC(=O)NCCO[N+](=O)[O-]` (stereo partly specified) came in with an IC50 with Platelet [16] of 0.44 µM. In [17], this compound came in with a solubility of 2.13 µM (≈ 1.09 µg/mL).

Regarding `O=[N+]([O-])c1cccc2cn[nH]c12` [7-NITROINDAZOLE], the 50% inhibitory concentration (IC50) in data set [12] came out at 0.71 µM.
